Results from patent publication US20250296959A1, “B7-H3 TARGETING PEPTIDES AND CONSTRUCTS THEREOF” (Mariana Oncology Inc., priority 2024, published 2025).
Starred links: 1 amine or outer side, 2 acyl side, 3 side chain; linkers in the order of their positions; H or OH if unused. Positions of bridges follow the written chain, without caps; N, C: chain ends. Non-standard residues stand in square brackets, D forms with d. Residues, ends and D or L forms follow the SMILES beside them. ξ: configuration not given here. *: point of attachment. Ala(piperidin-4-yl) = O=C([C@H](CC1CCN([*:3])CC1)N[*:1])[*:2]; DOTA = O=C(O)CN1CCN(CC(=O)O)CCN(CC(=O)*)CCN(CC(=O)O)CC1; Trp(5-F) = N[C@@H](Cc1c[nH]c2ccc(F)cc12)C(=O)O; Trp(7-aza) = N[C@@H](Cc1c[nH]c2ncccc12)C(=O)O; Trp(1-Me) = Cn1cc(C[C@H](N)C(=O)O)c2ccccc21; 1Nal = N[C@@H](Cc1cccc2ccccc12)C(=O)O; 2Nal = N[C@@H](Cc1ccc2ccccc2c1)C(=O)O; Val(3-OH) = CC(C)(O)[C@H](N)C(=O)O; aIle = CC[C@@H](C)[C@H](N)C(=O)O; Gly(cPr) = N[C@H](C(=O)O)C1CC1; aThr = C[C@H](O)[C@H](N)C(=O)O; hLeu = CC(C)CC[C@H](N)C(=O)O; Nle = CCCC[C@H](N)C(=O)O; Dab = NCC[C@H](N)C(=O)O; ξV = CC(C)C(N)C(=O)O

Molecular target: T1, human 4lg B7-H3 (Homo sapiens, UniProt Q5ZPR3)
T1 sequence (Q5ZPR3 29-534): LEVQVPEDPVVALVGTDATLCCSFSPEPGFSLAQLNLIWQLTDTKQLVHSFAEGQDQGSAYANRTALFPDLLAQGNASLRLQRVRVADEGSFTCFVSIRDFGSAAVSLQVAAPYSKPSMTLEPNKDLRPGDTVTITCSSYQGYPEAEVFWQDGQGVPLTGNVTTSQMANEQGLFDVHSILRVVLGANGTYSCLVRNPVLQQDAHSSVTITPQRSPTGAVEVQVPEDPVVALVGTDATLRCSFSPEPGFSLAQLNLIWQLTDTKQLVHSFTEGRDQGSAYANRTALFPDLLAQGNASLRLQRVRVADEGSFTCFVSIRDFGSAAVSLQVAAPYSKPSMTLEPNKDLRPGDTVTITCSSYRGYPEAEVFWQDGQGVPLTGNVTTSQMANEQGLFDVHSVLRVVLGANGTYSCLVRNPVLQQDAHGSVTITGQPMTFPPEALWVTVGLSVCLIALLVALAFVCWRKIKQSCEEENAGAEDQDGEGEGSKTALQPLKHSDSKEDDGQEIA
Assay: Affinity determination by surface plasmon resonance (SPR) to 4Ig B7-H3
Conditions: SPR KD—25° C., 4Ig B7-H3; 25° C. flow cell temperature

Question: For CC(=O)N[C@@H](CCC(C)C)C(=O)N[C@@H](Cc1ccc(O)cc1)C(=O)N[C@H]1CSSC[C@@H](C(=O)N[C@@H](Cc2c[nH]c3ccccc23)C(=O)N[C@@H](Cc2ccccc2)C(=O)N[C@H](C(=O)N[C@H](CCCCNC(=O)CN2CCN(CC(=O)O)CCN(CC(=O)O)CCN(CC(=O)O)CC2)C(N)=O)[C@@H](C)O)NC(=O)[C@H](Cc2ccc(O)cc2)NC(=O)[C@H](C(C)C)NC(=O)[C@H](CC(=O)O)NC(=O)[C@H](Cc2ccc(O)cc2)NC(=O)[C@H](CCCCN)NC(=O)CNC(=O)[C@H](C(C)(C)O)NC1=O [compound 122, Ac-hLeu-Y-C-hydroVal-G-K-Y-D-V-Y-C-W-F-Thr-dLys(DOTA)-CONH2] (Ac-[hLeu]YC[Val(3-OH)]GKYDVYCWFT[dK](DOTA)-NH2; disulfide 3-11), which Kd is on record?
Answer: Its Kd is 10 to 100 nM.

Question: With CC(=O)N[C@@H](CCC(C)C)C(=O)N[C@@H](Cc1ccc(O)cc1)C(=O)N[C@H]1CSSC[C@@H](C(=O)N[C@@H](Cc2c[nH]c3ccccc23)C(=O)N[C@@H](Cc2ccccc2)C(=O)N[C@H](C(=O)N[C@H](CCCCNC(=O)CN2CCN(CC(=O)O)CCN(CC(=O)O)CCN(CC(=O)O)CC2)C(N)=O)[C@@H](C)O)NC(=O)[C@H](Cc2ccc(O)cc2)NC(=O)[C@H](C2CC2)NC(=O)[C@H](CC(=O)O)NC(=O)[C@H](Cc2ccc(O)cc2)NC(=O)[C@H](CCCCN)NC(=O)CNC(=O)[C@H](C(C)C)NC1=O [compound 123, Ac-hLeu-Y-C-V-G-K-Y-D-Cpg-Y-C-W-F-Thr-dLys(DOTA)-CONH2] (Ac-[hLeu]YCVGKYD[Gly(cPr)]YCWFT[dK](DOTA)-NH2; disulfide 3-11) as the compound, how does the Kd read?
Answer: The Kd was 1 to 10 nM.

Question: How did the Kd turn out when CC(=O)N[C@@H](CCC(C)C)C(=O)N[C@@H](Cc1ccc(O)cc1)C(=O)N[C@H]1CSSC[C@@H](C(=O)N[C@@H](Cc2c[nH]c3ccccc23)C(=O)N[C@@H](Cc2ccccc2)C(=O)N[C@H](C(=O)N[C@H](CCCCNC(=O)CN2CCN(CC(=O)O)CCN(CC(=O)O)CCN(CC(=O)O)CC2)C(N)=O)[C@@H](C)O)NC(=O)[C@H](Cc2ccc(O)cc2)NC(=O)[C@H]([C@H](C)O)NC(=O)[C@H](CC(=O)O)NC(=O)[C@H](Cc2ccc(O)cc2)NC(=O)[C@H](CCCCN)NC(=O)CNC(=O)[C@H](C(C)C)NC1=O [compound 125, Ac-hLeu-Y-C-V-G-K-Y-D-alloThr-Y-C-W-F-Thr-dLys(DOTA)-CONH2] (Ac-[hLeu]YCVGKYD[aThr]YCWFT[dK](DOTA)-NH2; disulfide 3-11) was run?
Answer: Its Kd is 100 to 300 nM.

Question: CC[C@@H](C)[C@@H]1NC(=O)[C@H](CC(=O)O)NC(=O)[C@H](Cc2ccc(O)cc2)NC(=O)[C@H](CCCCN)NC(=O)CNC(=O)[C@H](C(C)C)NC(=O)[C@@H](NC(=O)[C@H](Cc2ccc(O)cc2)NC(=O)[C@H](CCC(C)C)NC(C)=O)CSSC[C@@H](C(=O)N[C@@H](Cc2c[nH]c3ccccc23)C(=O)N[C@@H](Cc2ccccc2)C(=O)N[C@H](C(=O)N[C@H](CCCCNC(=O)CN2CCN(CC(=O)O)CCN(CC(=O)O)CCN(CC(=O)O)CC2)C(N)=O)[C@@H](C)O)NC(=O)[C@H](Cc2ccc(O)cc2)NC1=O [compound 126, Ac-hLeu-Y-C-V-G-K-Y-D-allolle-Y-C-W-F-Thr-dLys(DOTA)-CONH2] (Ac-[hLeu]YCVGKYD[aIle]YCWFT[dK](DOTA)-NH2; disulfide 3-11) was tested. Which Kd did it give?
Answer: The Kd was less than 1 nM.

Question: For CC(=O)N[C@@H](CCC(C)C)C(=O)N[C@@H](Cc1ccc(O)cc1)C(=O)N[C@H]1CSSC[C@@H](C(=O)N[C@@H](Cc2c[nH]c3ccccc23)C(=O)N[C@@H](Cc2ccccc2)C(=O)N[C@H](C(=O)N[C@H](CCCCNC(=O)CN2CCN(CC(=O)O)CCN(CC(=O)O)CCN(CC(=O)O)CC2)C(N)=O)[C@@H](C)O)NC(=O)[C@H](Cc2ccc(O)cc2)NC(=O)[C@H](C(C)(C)O)NC(=O)[C@H](CC(=O)O)NC(=O)[C@H](Cc2ccc(O)cc2)NC(=O)[C@H](CCCCN)NC(=O)CNC(=O)[C@H](C(C)C)NC1=O [compound 127, Ac-hLeu-Y-C-V-G-K-Y-D-hydroVal-Y-C-W-F-Thr-dLys(DOTA)-CONH2] (Ac-[hLeu]YCVGKYD[Val(3-OH)]YCWFT[dK](DOTA)-NH2; disulfide 3-11), which Kd is on record?
Answer: Its Kd is 100 to 300 nM.

Question: Which Kd does the source give for CCCC[C@H](NC(C)=O)C(=O)N[C@@H](Cc1ccc(O)cc1)C(=O)N[C@H]1CSSC[C@@H](C(=O)N[C@@H](Cc2cccc3ccccc23)C(=O)N[C@@H](Cc2ccccc2)C(=O)N[C@H](C(=O)N[C@H](CCCCNC(=O)CN2CCN(CC(=O)O)CCN(CC(=O)O)CCN(CC(=O)O)CC2)C(N)=O)[C@@H](C)O)NC(=O)[C@H](Cc2ccc(O)cc2)NC(=O)C(C(C)C)NC(=O)[C@H](CC(=O)O)NC(=O)[C@H](Cc2ccc(O)cc2)NC(=O)[C@H](CCCCN)NC(=O)CNC(=O)[C@H](C(C)C)NC1=O (stereo partly drawn) [compound 128, Ac-Nle-Y-C-V-G-K-Y-D-V-Y-C-1Nal-F-Thr-dLys(DOTA)-CONH2] (Ac-[Nle]YCVGKYD[ξV]YC[1Nal]FT[dK](DOTA)-NH2; disulfide 3-11) here?
Answer: The Kd was 1 to 10 nM.

Question: With CCCC[C@H](NC(C)=O)C(=O)N[C@@H](Cc1ccc(O)cc1)C(=O)N[C@H]1CSSC[C@@H](C(=O)N[C@@H](Cc2ccc3ccccc3c2)C(=O)N[C@@H](Cc2ccccc2)C(=O)N[C@H](C(=O)N[C@H](CCCCNC(=O)CN2CCN(CC(=O)O)CCN(CC(=O)O)CCN(CC(=O)O)CC2)C(N)=O)[C@@H](C)O)NC(=O)[C@H](Cc2ccc(O)cc2)NC(=O)C(C(C)C)NC(=O)[C@H](CC(=O)O)NC(=O)[C@H](Cc2ccc(O)cc2)NC(=O)[C@H](CCCCN)NC(=O)CNC(=O)[C@H](C(C)C)NC1=O (stereo partly drawn) [compound 129, Ac-Nle-Y-C-V-G-K-Y-D-V-Y-C-2Nal-F-Thr-dLys(DOTA)-CONH2] (Ac-[Nle]YCVGKYD[ξV]YC[2Nal]FT[dK](DOTA)-NH2; disulfide 3-11) as the compound, how does the Kd read?
Answer: Its Kd is 100 to 300 nM.

Question: CCCC[C@H](NC(C)=O)C(=O)N[C@@H](Cc1ccc(O)cc1)C(=O)N[C@H]1CSSC[C@@H](C(=O)N[C@@H](Cc2c[nH]c3ccccc23)C(=O)N[C@@H](Cc2ccccc2)C(=O)N[C@@H](CCN)C(=O)N[C@H](CCCCNC(=O)CN2CCN(CC(=O)O)CCN(CC(=O)O)CCN(CC(=O)O)CC2)C(N)=O)NC(=O)[C@H](Cc2ccc(O)cc2)NC(=O)[C@H](C(C)C)NC(=O)[C@H](CC(=O)O)NC(=O)[C@H](Cc2ccc(O)cc2)NC(=O)[C@H](CCCCN)NC(=O)CNC(=O)[C@H](C(C)C)NC1=O [compound 131, Ac-Nle-Y-C-V-G-K-Y-D-V-Y-C-W-F-Dab-dLys(DOTA)-CONH2] (Ac-[Nle]YCVGKYDVYCWF[Dab][dK](DOTA)-NH2; disulfide 3-11) was tested. Which Kd did it give?
Answer: Its Kd is 10 to 100 nM.

Question: CCCC[C@H](NC(C)=O)C(=O)N[C@@H](Cc1ccc(O)cc1)C(=O)N[C@H]1CSSC[C@@H](C(=O)N[C@@H](Cc2cn(C)c3ccccc23)C(=O)N[C@@H](Cc2ccccc2)C(=O)N[C@H](C(=O)N[C@H](CCCCNC(=O)CN2CCN(CC(=O)O)CCN(CC(=O)O)CCN(CC(=O)O)CC2)C(N)=O)[C@@H](C)O)NC(=O)[C@H](Cc2ccc(O)cc2)NC(=O)[C@H](C(C)C)NC(=O)[C@H](CC(=O)O)NC(=O)[C@H](Cc2ccc(O)cc2)NC(=O)[C@H](CCCCN)NC(=O)CNC(=O)[C@H](C(C)C)NC1=O [compound 132, Ac-Nle-Y-C-V-G-K-Y-D-V-Y-C-Trp(Me)-F-Thr-dLys(DOTA)-CONH2] (Ac-[Nle]YCVGKYDVYC[Trp(1-Me)]FT[dK](DOTA)-NH2; disulfide 3-11) was tested. Which Kd did it give?
Answer: The Kd was 1 to 10 nM.

Question: Which Kd does the source give for CCCC[C@H](NC(C)=O)C(=O)N[C@@H](Cc1ccc(O)cc1)C(=O)N[C@H]1CSSC[C@@H](C(=O)N[C@@H](Cc2c[nH]c3ccc(F)cc23)C(=O)N[C@@H](Cc2ccccc2)C(=O)N[C@H](C(=O)N[C@H](CCCCNC(=O)CN2CCN(CC(=O)O)CCN(CC(=O)O)CCN(CC(=O)O)CC2)C(N)=O)[C@@H](C)O)NC(=O)[C@H](Cc2ccc(O)cc2)NC(=O)[C@H](C(C)C)NC(=O)[C@H](CC(=O)O)NC(=O)[C@H](Cc2ccc(O)cc2)NC(=O)[C@H](CCCCN)NC(=O)CNC(=O)[C@H](C(C)C)NC1=O [compound 133, Ac-Nle-Y-C-V-G-K-Y-D-V-Y-C-5FW-F-Thr-dLys(DOTA)-CONH2] (Ac-[Nle]YCVGKYDVYC[Trp(5-F)]FT[dK](DOTA)-NH2; disulfide 3-11) here?
Answer: Its Kd is 1 to 10 nM.

Question: For CCCC[C@H](NC(C)=O)C(=O)N[C@@H](Cc1ccc(O)cc1)C(=O)N[C@H]1CSSC[C@@H](C(=O)N[C@@H](Cc2c[nH]c3ncccc23)C(=O)N[C@@H](Cc2ccccc2)C(=O)N[C@H](C(=O)N[C@H](CCCCNC(=O)CN2CCN(CC(=O)O)CCN(CC(=O)O)CCN(CC(=O)O)CC2)C(N)=O)[C@@H](C)O)NC(=O)[C@H](Cc2ccc(O)cc2)NC(=O)[C@H](C(C)C)NC(=O)[C@H](CC(=O)O)NC(=O)[C@H](Cc2ccc(O)cc2)NC(=O)[C@H](CCCCN)NC(=O)CNC(=O)[C@H](C(C)C)NC1=O [compound 134, Ac-Nle-Y-C-V-G-K-Y-D-V-Y-C-7NW-F-Thr-dLys(DOTA)-CONH2] (Ac-[Nle]YCVGKYDVYC[Trp(7-aza)]FT[dK](DOTA)-NH2; disulfide 3-11), which Kd is on record?
Answer: Its Kd is 10 to 100 nM.

Question: Which Kd does the source give for CC(=O)N[C@@H](CCC(C)C)C(=O)N[C@@H](Cc1ccc(O)cc1)C(=O)N[C@H]1CSSC[C@@H](C(=O)N[C@@H](Cc2c[nH]c3ccccc23)C(=O)N[C@@H](Cc2ccccc2)C(=O)N[C@H](C(=O)N[C@H](CCCCNC(=O)CN2CCN(CC(=O)O)CCN(CC(=O)O)CCN(CC(=O)O)CC2)C(N)=O)[C@@H](C)O)NC(=O)[C@H](Cc2ccc(O)cc2)NC(=O)[C@H](C(C)C)NC(=O)[C@H](CC(=O)O)NC(=O)[C@H](CC2CCNCC2)NC(=O)[C@H](CCCCN)NC(=O)CNC(=O)[C@H](C(C)C)NC1=O [compound 135, Ac-hLeu-Y-C-V-G-K-PipAla-D-V-Y-C-W-F-Thr-dLys(DOTA)-CONH2] (Ac-[hLeu]YCVGK[Ala(piperidin-4-yl)]DVYCWFT[dK](DOTA)-NH2; disulfide 3-11) here?
Answer: The Kd was 1 to 10 nM.
